Columns and labels:
[1] = tested on: reserpine-induced dyskinesia; experiment: Rat reserpine-induced dyskinesia model; format: in vivo
human ADORA2B = biological target: T1, human ADORA2B (Homo sapiens, UniProt P29275); experiment: Calcium flow test (FLIPR), ADORA2B stably transfected HEK293; format: cell-based; settings: Table 9
T1 construct: host or cells: HEK293
Excerpt: The binding of the A2AR agonist to A2AR could activate a downstream pathway to increase the intracellular calcium ion concentration. The antagonist would competitively occupy the binding site where the agonist binds to A2AR, thereby interrupting the intracellular signal transduction and leading to a change in the intracellular calcium ion concentration. By detecting the strength of the intracellular calcium ion signal, the antagonistic activities of the compound on human ADORA1, ADORA2A, ADORA2B and ADORA3 adenosine receptors were determined. […]
7) The FLIPR instrument software was operated; following a set program, 10 μL of experimental buffer salt solution was added to the cell plate; and fluorescence signals were read. Then, 10 μL of the reference compound of agonist at a predetermined concentration was added to the cell plate, and the fluorescence signals were read. After reading, data was exported by means of “Max-Min” and “Read 91 to Maximum allowed” in the software, the EC80 of each cell line was calculated, and an agonist with a concentration of 6×EC80 was prepared.
9) The FLIPR instrument software was operated; following a set program, 10 μL of the test compound and 10 μL of the reference compound were added at a predetermined concentration to the cell plate; and the fluorescence signals were read. […]

[2] = biological target: T2, Human adenosine ADORA3 receptor membrane protein (Homo sapiens, UniProt P0DMS8); experiment: Radioisotope ligand competitive binding, ADORA3 ([3H] HEMADO); settings: ADORA3 (IC50, nM, n = 3), binding test
T2 construct: purchased PerkinElmer ES-012-M400UA
T2 sequence (P0DMS8 1-318): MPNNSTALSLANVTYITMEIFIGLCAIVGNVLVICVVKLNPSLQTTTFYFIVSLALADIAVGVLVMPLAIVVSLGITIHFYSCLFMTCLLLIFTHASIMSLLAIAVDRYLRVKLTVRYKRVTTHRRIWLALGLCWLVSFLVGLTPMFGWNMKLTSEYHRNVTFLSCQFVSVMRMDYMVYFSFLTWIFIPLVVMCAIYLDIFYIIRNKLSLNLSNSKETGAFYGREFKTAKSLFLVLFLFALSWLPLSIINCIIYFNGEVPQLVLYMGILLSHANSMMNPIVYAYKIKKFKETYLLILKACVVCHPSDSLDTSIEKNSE
Protocol: ADORA3: 25 mM HEPES pH 7.4, 10 mM MgCl2, 1 mM CaCl2, 0.5% BSA
4) Preparation of compounds: the test compounds and the reference compounds were separately diluted with 100% DMSO. For the test compounds, the initial concentration was 10 μM, with double secondary wells; 4-fold gradient dilution was carried out at 10 points; and the final working concentration was 0.038 nM-10 μM (for the second and third detection of the test compound against an ADORA2A target, the initial concentration was 2 μM, with double secondary wells, 4-fold gradient dilution was carried out at 10 points, and the final working concentration was 0.0076 nM-2 μM). For the ADORA1, ADORA2A, ADORA2B, and ADORA3 reference compounds, the initial concentration was 1 μM, with double secondary wells, 4-fold gradient dilution was carried out at 10 points, and the final working concentration was 0.0038 nM-1 μM.
(§1) 1 μL of a sample to be tested and 1 μL of a reference compound were added to a 96-well plate in sequence. […] 100 μL of cells and 100 μL of isotopes were added to all experimental wells. The 96-well plate was sealed; ADORA1, ADORA2B, and ADORA3 were incubated for 1 hour on a shaker (300 rpm) at room temperature (22° C.); and ADORA2A was incubated for 2 hours on a shaker (300 rpm) at room temperature (22° C.). At the same time, a GF/C filter plate was soaked with ADORA1, ADORA2A, ADORA2B, and ADORA3 by using 0.3% PEI for at least 30 minutes at room temperature, at 50 μL/well. After the incubation was completed, the incubated reaction system was collected onto the GF/C filter plate with a Harvester, washed 4 times and then dried for 0.5 hours in an oven at 50° C. The bottom of the dried GF/C filter plate was sealed with a film, 50 μL of scintillation solution was added to each well, which was then sealed with a Top-seal-A film. With Microbeta readings, the data was analyzed by GraphPad Prism 5.0.
(§2) % Inhibition=100×(1−(Sample_raw value−Low control_Average)/(High control_Average−Low control_Average))
(§3) The data was fitted with “log(inhibitor) vs response-variable slope” in GraphPad Prism 5.0 to obtain IC50.

[3] = biological target: T3, Human adenosine ADORA2A receptor membrane protein (Homo sapiens, UniProt P29274); experiment: Radioisotope ligand competitive binding, ADORA2A ([3H] CGS-21680); settings: ADORA2A (IC50, nM, n = 3), binding test
T3 construct: purchased PerkinElmer RBHA2AM400UA
T3 sequence (P29274 whole entry): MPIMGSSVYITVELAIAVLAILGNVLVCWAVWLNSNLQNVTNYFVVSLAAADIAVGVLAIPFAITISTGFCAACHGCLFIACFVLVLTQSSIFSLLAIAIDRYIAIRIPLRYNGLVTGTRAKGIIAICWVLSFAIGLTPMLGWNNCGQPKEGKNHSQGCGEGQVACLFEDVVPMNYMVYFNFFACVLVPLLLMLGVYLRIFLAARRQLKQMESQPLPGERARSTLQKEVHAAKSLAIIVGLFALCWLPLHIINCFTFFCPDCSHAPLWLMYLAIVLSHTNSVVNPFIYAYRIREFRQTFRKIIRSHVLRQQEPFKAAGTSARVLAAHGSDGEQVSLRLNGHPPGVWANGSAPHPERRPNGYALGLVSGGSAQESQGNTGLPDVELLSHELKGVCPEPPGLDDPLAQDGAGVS
Protocol: ADORA2A: 50 mM Tris-HCl pH 7.4, 10 mM MgCl2, 1 mM EDTA
4) Preparation of compounds: the test compounds and the reference compounds were separately diluted with 100% DMSO.
as §1, §2, §3

[4] = 7.5 mg/kg intragastric, 0-30 min
[5] = 7.5 mg/kg intragastric, 0-60 min
[6] = 7.5 mg/kg intragastric, 30-60 min
[7] = 15 mg/kg intragastric, 0-30 min
[8] = 15 mg/kg intragastric, 0-60 min
[9] = 15 mg/kg intragastric, 30-60 min
[10] = 30 mg/kg intragastric, 0-30 min
[11] = 30 mg/kg intragastric, 0-60 min
[12] = 30 mg/kg intragastric, 30-60 min

T1 sequence (P29275 whole entry): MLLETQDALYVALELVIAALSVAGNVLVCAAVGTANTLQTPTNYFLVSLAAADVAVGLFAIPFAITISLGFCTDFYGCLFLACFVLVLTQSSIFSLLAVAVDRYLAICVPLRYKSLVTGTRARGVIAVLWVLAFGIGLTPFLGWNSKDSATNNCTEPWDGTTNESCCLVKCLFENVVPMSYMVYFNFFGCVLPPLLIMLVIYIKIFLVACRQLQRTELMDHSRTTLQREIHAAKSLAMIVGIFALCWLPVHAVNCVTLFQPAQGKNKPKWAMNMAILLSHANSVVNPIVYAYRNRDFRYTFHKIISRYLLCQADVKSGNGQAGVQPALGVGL

SMILES	Number of standings [1, 7]	Walking distance [1, 7]	Walking time [1, 7]	Number of standings [1, 8]	Walking distance [1, 8]	Walking time [1, 8]	Number of standings [1, 9]	Walking distance [1, 9]	Walking time [1, 9]	IC50 (human ADORA2B)	IC50 ([2]; Table 10 (IC50))	IC50 ([2]; Table 11)	IC50 ([3]; Table 10 (IC50))	IC50 ([3]; Table 11)	also measured
CC(=O)O.Nc1nc(NCCc2ccc(NC3COC3)cc2)nc2nc(-c3ccco3)nn12 [Acetate of Compound 22, 2-(furan-2-yl)-N5-(4-(oxetane-3-ylamino)phenethyl)-[1,2,4]triazolo[1,5-a][1,3,5]triazine-5,7-diamine acetate]	51.9 ± 7.4	1.8 ± 0.4 m	26.3 ± 5.6 s	110 ± 12.7	3.8 ± 0.6 m	48.5 ± 8.2 s	58.2 ± 7.7	2.0 ± 0.4 m	40.3 ± 15.6 s	–	–	–	–	–	Number of standings [1, 4]: 28.5 ± 7.1; Walking distance [1, 4]: 0.9 ± 0.3 m; Walking time [1, 4]: 9.3 ± 4.3 s; Number of standings [1, 5]: 56.7 ± 12.6; Walking distance [1, 5]: 2.0 ± 0.6 m; Walking time [1, 5]: 17.8 ± 7.5 s; Number of standings [1, 6]: 28.3 ± 6.9; Walking distance [1, 6]: 1.0 ± 0.3 m; Walking time [1, 6]: 16.2 ± 7.6 s; Number of standings [1, 10]: 56.5 ± 9.6; Walking distance [1, 10]: 2.5 ± 1.0 m; Walking time [1, 10]: 35.8 ± 12.6 s; Number of standings [1, 11]: 97.9 ± 15.3; Walking distance [1, 11]: 3.9 ± 1.4 m; Walking time [1, 11]: 52.9 ± 17.5 s; Number of standings [1, 12]: 41.5 ± 6.7; Walking distance [1, 12]: 1.4 ± 0.4 m; Walking time [1, 12]: 33.2 ± 12.2 s
Cn1nnc(-c2ccc(CCNc3nc(N)n4nc(-c5ccco5)nc4n3)cc2)n1 [Compound 40, N5-(4-(2-methyl-2H-tetrazol-5-yl)phenethyl)-2-(furan-2-yl)-[1,2,4]triazolo[1,5-a][1,3,5]triazine-5,7-diamine]	–	–	–	–	–	–	–	–	–	194 ± 25.5 nM	2000 ± 1030 nM	1610 nM	1.85 ± 0.27 nM	1.64 nM	–
Nc1nc(NCCc2ccc(NC3COC3)cc2)nc2nc(-c3ccco3)nn12 [Compound 22, 2-(furan-2-yl)-N5-(4-(oxetan-3-ylamino)phenethyl)-[1,2,4]triazolo[1,5-a][1,3,5]triazine-5,7-diamine]	–	–	–	–	–	–	–	–	–	106 ± 29.2 nM	872 ± 492 nM	703 nM	0.96 ± 0.11 nM	0.85 nM	–
CCn1c(=O)c2c(nc(/C=C/c3ccc(OC)c(OC)c3)n2C)n(CC)c1=O [Istradefylline, reference compound]	44.1 ± 7.9	1.6 ± 0.6 m	19.6 ± 5.9 s	95.7 ± 16.3	2.9 ± 0.9 m	35.1 ± 10.1 s	51.6 ± 9.7	1.3 ± 0.4 m	32.0 ± 13.7 s	–	–	–	–	–	–
